Structure (SMILES) | melting point [°C]
CCN(CC)C(=O)n1cc(C(F)F)c(S(=O)(=O)c2cccc(Cl)c2)n1 | 86 to 88
CN(C)CCCCCCc1ccc(NC=NO)cc1 | 96 to 97
C/C(C=O)=C\c1ccc([N+](=O)[O-])cc1 | 112 to 114
CS(=O)(=O)c1cc(S(F)(F)(F)(F)F)ccc1C(=O)c1cnoc1C1CC1 | 168 to 170
Nc1ccc(Br)n2nc(SCc3ccccc3)nc12 | 125 to 126
O=C1c2ccc(O)cc2C(=O)N1c1ccc(C2(c3ccc(N4C(=O)c5ccc(O)cc5C4=O)cc3)c3ccccc3-c3ccccc32)cc1 | > 300
CC1=C2OCOC2CC(C)(C)C1=O (configuration not stated) | 55.5 to 57
CS(=O)(=O)c1ccc(-c2[nH]c(C(O)(C(F)(F)F)C(F)(F)F)nc2-c2ccccc2)cc1 | 223 to 225
NC(=O)N1CC(Oc2cccc(F)c2)C1 | 169 to 170
O=c1cc(O)c2c([nH]1)CCCCC2 | > 270
Cc1cc(OS(=O)(=O)c2ccccc2)cc2c(C3CCN(C)CC3)c[nH]c12 | 118
CC(C)NC(=O)c1ccc(-c2ccc3oc(C4CCN(C(=O)OC(C)C)CC4)nc3c2)cc1F | 147 to 150
CCOP(=O)(/C=C/c1cn(-c2ccccc2)nc1OCc1ccc(OCc2nc(-c3ccc(C(=O)O)cc3)oc2C)c(OC)c1)OCC | 194 to 195
Cn1cnc2c1c1nnc(-c3ccccc3)n1c(=O)n2Cc1ccccc1 | 255 to 257
CCOC(=O)N1CCN(C(C#N)c2ccc(OC)c(OC)c2OC)CC1 (configuration not stated) | 138 to 139
COC(=O)c1c(OCc2ccccc2)ccc2c1CC[C@H](NC(C)(C)C)[C@@H]2O (relative stereo) | 104 to 105
O=C(NCc1ccc(F)cc1)Nc1ccc(CN2C(=O)[C@H]3CCC[C@H]3N(C(=O)CCl)c3ccccc32)cc1 (relative stereo) | 202 to 203
COc1ccc(-c2cc(=O)n(Cc3ccncc3)nc2-c2ccc(OC)cc2)cc1 | 182 to 183
C#CCn1cc(CO)c([N+](=O)[O-])c1 | 60
N#Cc1nc(Cl)c(-c2c(F)cccc2Cl)c(Cl)c1Br | 90
CN1C(NCc2ccccc2)=Nc2ccncc2S1(=O)=O | 142 to 146
C[Si](C)(C)N(SN=C(Cl)C#N)[Si](C)(C)C | 29 to 30
CCCCCCCCCC(C)NC(=O)C=C(C)c1cccc(NC(=O)CCCC(=O)O)c1 (configuration not stated) | 115 to 118
Nc1noc2cc3c(cc12)C1(CO3)C(=O)N(CC2CCCO2)c2ccccc21 (configuration not stated) | 116 to 119
COCCOc1ccc(/C=C/C(=O)NS(=O)(=O)C(F)(F)F)c(Oc2ncc(C(F)(F)F)cc2Cl)c1 | 126 to 128

Structure (SMILES) | melting point [°C]
CCOC(=O)COC1CCN(C(=O)[C@H](C)OCc2ccc(C(N)=NO)cc2)CC1 | 137 to 138
CCOC(=O)c1c(C)nc(S)c(N)c1NCCCN(C)C | 110 to 112
CSc1nccc(-c2cc(C)ccc2NC(=O)C(C)(C)C)n1 | 119 to 120
O=C(O)[C@@H]1C[C@H](OS(=O)(=O)C2CCCCC2)CN1C(=O)c1ccccc1 | 154 to 172
NC(=O)c1ccc2c(c1)C(=O)C1(CC1)O2 | 243 to 244
Cc1ccc(C(=O)Nc2c(NC(=O)CN3CCSCC3)ccc3c2C(=O)c2ccccc2C3=O)cc1 | 210 to 211
Fc1ccc(-c2onc3c(CBr)cccc23)cc1 | 145 to 148
CCOC(=O)C(C)(C)c1nc2ccc(OCCCN3CCC(OC(c4ccccc4)c4ccccc4)CC3)nn2c1Cl | 186 to 188
O=C(c1cc2cc(OCCNC[C@H](O)COc3ccccc3)ccc2[nH]1)N1CCCC1 | 110 to 115
N#CNC(=NC1CCN(Cc2ccccc2)CC1)N1CCc2ccccc2CC1 | 192 to 194
CC(C)(Cc1ccc(OCCCC(=O)O)cc1)NCC(O)c1cc(O)cc2c1OCC(=O)N2 (configuration not stated) | 201 to 204
CCOC(=O)C=CN1C(C)(C)CC(OC(=O)CC(=O)OC2CC(C)(C)N(C=CC(=O)OCC)C(C)(C)C2)CC1(C)C | 100 to 102
N[C@@]1(C(=O)O)C[C@H](NC(=O)Nc2ccc(Cl)cc2)[C@H]2[C@H](C(=O)O)[C@H]21 (relative stereo) | > 250
c1ccc(Sc2ccc(Sc3ccccc3)cc2)cc1 | 78 to 79
Cc1ccc(C=Cc2ccc(-c3ccccc3)s2)cc1 | 159 to 160
Cc1ccc(S(=O)(=O)OC(=O)c2ccc(C(=O)OS(=O)(=O)c3ccc(C)cc3)cc2)cc1 | 170 to 176
CC(C)(C)OC(=O)Nc1ccc(Nc2ncnc3[nH]cc(C(=O)c4ccccc4)c23)cc1 | 274 to 280
Nc1ccn2nc(-c3cccnc3)nc2c1 | 228 to 233
O=C(O)c1cccc(-c2ccc3c(c2)N(Cc2cccc(Cl)c2Cl)CC3)c1 | 185 to 186
Cc1cc(C#N)cc(C(=O)c2c(C(C)C)c(=O)[nH]c(=O)n2CC2(CC(N)=O)CC2)c1 | 283 to 285
O=C(NC1CCCCC1)c1ccc(-c2cnc(-c3ccc(NC(=O)c4ccccn4)cc3)[nH]2)cc1 | 250 to 252
CCOC(=O)C(=O)Nc1c([N+](=O)[O-])sc2cc(Cl)ccc12 | 139 to 141
O=c1c2cccc3c2n(c(=O)n1CC(O)CO)-c1cc(C(F)(F)F)ccc1S3 (configuration not stated) | 159 to 162
COc1ccc(C=CC(=O)c2ccc(OC)c(CC=C(C)C)c2O)cc1 | 97 to 97.5
CC(=O)c1sc(N2CCN(CCC3CC3)C2=O)nc1C | 82 to 83

Structure (SMILES) | melting point [°C]
Oc1ccc(-c2noc(C3(C(O)(C4CC4)C4CC4)CC3)c2-c2ccccc2)cc1 | 169 to 170
O=C(/C=C/c1ccsc1)N1CCOCC1 | 141 to 142
OCc1ccc(C=Cc2csc3ccccc23)s1 | 68 to 70
CC12CC3CC(C)(C1)CC(NC(=O)CCl)(C3)C2 | 107
Nc1ccc(-n2ncnc2-c2ccc(F)cc2)cc1 | 147 to 150
CC(C)NC(=O)C1OC1c1ccccc1 (configuration not stated) | 114 to 115
Nc1cccc(-c2ccc(CCN3Cc4ccccc4C3)cc2)n1 | 140 to 143
Cc1cnc2oc(-c3ccccc3)nc2c1 | 71 to 73
COCCN1CCN(CCc2ccc(Nc3ncc4c(n3)-c3ccccc3C(c3ccc(Cl)c(Cl)c3)C4)cc2)CC1 (configuration not stated) | 121 to 122
CCOC(=O)Cc1nc(-c2ccc(F)cc2)oc1-c1ccco1 | 110 to 111
CCOc1cccc(C)c1S(=O)(=O)N=C=O | 40
C#CCN(C)c1nccc(Oc2ccc(NC(=O)c3cc(F)cc(N4CCOCC4)c3)c3ccccc23)n1 | 97 to 98
Nc1ncc(-c2ccc3c(c2)CCC(N2CCOCC2)CC3)c(N)n1 (configuration not stated) | 118
COc1ccc(C(C)(CC(C)C)C(=O)NC2CCCCCCCCCCNC2=O)c(S)c1 (configuration not stated) | 131 to 136
CCCOc1ccccc1-c1nc2ncncc2c(=O)[nH]1 | 142 to 143
Nc1nc(-c2ccc(CCN3CCN(c4cccc5cccnc45)CC3)cc2)cs1 | > 225
CCOP(=O)(OCC)C(O)[C@H](CC1CCCCC1)NC(=O)[C@H](CC(C)C)NC(=O)[C@H](Cc1ccccc1)NC(=O)OC(C)(C)C (some centres not stated) | 173 to 175
Cc1cccc(-c2ccc3c(C(N)=O)nn(-c4ccc(S(N)(=O)=O)cc4)c3c2)c1 | 261 to 263
CSc1ccc(C(=O)C(=O)c2ccc(Cl)c(Cl)c2)cc1 | 249 to 251
CNC(=O)c1cccc(NC(=O)Cc2csc3ccccc23)c1 | 194
Cc1c(NC(=O)CC(C)(C)C)cc2c(c1C)OC(C)(C)C2(O)c1ccccc1 (configuration not stated) | 109 to 111
NC(=O)C1CCc2c(C(=O)c3ccc(Cl)cc3)cccc21 (configuration not stated) | 159 to 161
CC(C)c1ccc(-n2c(CC(=O)O)c(C(=O)O)c3cc(Oc4ccc(Cl)c(Cl)c4)ccc32)cc1 | 174 to 180
O=C(NCc1noc(-c2c3ccccc3nn2CCn2ccnc2)n1)c1ccccc1 | 167 to 168
O=[N+]([O-])c1ccc2nc(-c3ccc4c(c3)OCO4)ncc2c1 | 220 to 222

Structure (SMILES) | melting point [°C]
Cc1ccc2cccc(OCc3c(Cl)ccc(S(=O)(=O)N4CCC[C@H]4C(=O)N(C)CCNC(=O)OC(C)(C)C)c3Cl)c2n1 | 88
COCc1c(C=O)ncc2[nH]c3cccc(Cc4ccc(Cl)cc4)c3c12 | 248 to 250
COC=C(C(=O)OC)c1csc2ccc(COc3ccccc3)cc12 | 130
CC(C)(C)OC(=O)c1nc(-c2ccc(Cl)cc2Cl)n(-c2ccc(Cl)cc2)c1S(C)(=O)=O | 130
Cc1cccc(C(=O)CC(=O)C2CCCCC2)c1O | 42 to 43
CCCCCCCCCCCCCCCC(=O)OCCCN(C)C | 49 to 50
Cc1ccc(S(=O)(=O)NC(=O)N2CC2C#N)cc1 (configuration not stated) | 156 to 158
O=C(O)C1=Cc2cc(F)c(N3CCC4(CC3)OCCCO4)nc2N(c2ccc(F)cc2F)C1 | 177 to 178
C=C(C)C(=O)Oc1ccc(NS(C)(=O)=O)c(C)c1 | 95 to 97
O=C(N[C@H](Cc1ccc(C(F)(F)F)cc1)[C@@H](O)c1ccc(Oc2ccccc2)cc1)c1cccc2c1C=CCCC2 (racemic) | 191 to 192
CCCCc1ccc(-c2ncc(C#N)cn2)cc1 | 109 to 110
COC(=O)Nc1cc(O)c(Cl)cc1F | 140 to 141
CCCCN(CCCC)C(=O)Nc1ccc(C)cc1C | 48 to 50
COC(=O)/C=C/n1cnc2ccc(Cl)cc2c1=O | 171 to 172
Cc1cc(C(=CC(=O)N2CCOCC2)c2ccccc2)ccc1OS(=O)(=O)N(C)C | 108
Cc1cc(C)c(C)c(COc2cccc(-c3coc(C(=O)NNC(=O)c4ccc(O)c(C#N)c4)c3-c3ccccc3)c2)c1C | 242 to 247
NC(=O)CCCCCCCCCCn1nnnc1S | 112 to 114
CC(C)n1nc(-c2cc(C(=O)O)cnc2-c2ccccc2)ccc1=O | 221 to 223
O=C(NC1CC1)c1nc(-c2ccccc2)c(-c2ccc(=O)[nH]n2)s1 | > 250
CCCCNc1c(C#N)cnc2cc(OCCOC)c(OC)cc12 | 99 to 102
O=C(NCCCCCCO)OC1CCN(C(=O)OCc2ccccc2)CC1 | 50 to 52
NC(=O)c1cnn2cccc2c1NC1CCCCCC1 | 279
